Consider two compounds from ChEMBL document CHEMBL3826915, “Design and comparative anticonvulsant activity assessment of CNS-active alkyl-carbamoyl imidazole derivatives” (Bioorg Med Chem, 2016).

Broadly, the Vd is the apparent volume that relates the amount in the body to the concentration in plasma or blood. Read a high Vd as extensive tissue distribution. By half-life is commonly meant the time in which the quantity being followed falls by half. A lower half-life goes with fast loss. One may read the clearance as the volume of plasma or blood freed of the substance per unit of time. Low readings indicate inefficient removal, high ones efficient removal. The term ED50 denotes the dose that gives a 50% effect, or the effect in half of the subjects. As usually defined, the TD50 is the 50% point of the dose-response relation for the toxic effect studied.

Series [1] in a line: Volume of distribution in human. In kind it is ADME, organism-based. The settings on record: in vivo.
The nature of series [2]: Half life in human. The settings on record: in vivo. Type of series: ADME, organism-based.
Series [3] can be described thus: Clearance in human. Conditions: in vivo. Type of series: ADME, organism-based.
Series [4] relates to Rattus norvegicus. The experiment in a line: Anticonvulsant activity in albino Sprague-Dawley rat assessed as protection against maximal electroshock-induced seizures at 30 mg/kg, po after 2 hrs. Type of series: functional, organism-based.
Series [5] relates to Mus musculus. The experiment in a line: Anticonvulsant activity in ip dosed albino CF1 mouse assessed as protection against maximal electroshock-induced seizures by measuring time to peak effect. Type of series: functional. For orientation: Protection in the maximal electroshock model is a classic sign of anticonvulsant action.
Series [6] relates to Rattus norvegicus. Nature of the series: Anticonvulsant activity in ip dosed albino Sprague-Dawley rat assessed as protection against maximal electroshock-induced seizures. Type of series: functional.
For series [7], the system named is Mus musculus. The experiment in a line: Anticonvulsant activity in ip dosed albino CF1 mouse assessed as protection against subcutaneous metrazol-induced seizures by measuring time to peak effect. In kind it is functional.
Series [8] in a line: Neurotoxicity in ip dosed albino CF1 mouse assessed as motor impairment by rotorod test. Type of series: toxicity, organism-based. Conditions: in vivo. For orientation: Falling from the rotarod earlier than controls is read as motor impairment.
In series [9] the test system is Mus musculus. Nature of the series: Anticonvulsant activity in albino CF1 mouse assessed as protection against 44 mA current-induced seizure at 50 mg/kg, ip after 1 hr by 6 Hz psychomotor test. In kind it is functional, organism-based.
Series [10] deals with Mus musculus. Nature of the series: Neurotoxicity in albino CF1 mouse assessed as behavioral impairment at 30 mg/kg, ip after 0.5 hrs by rotorod test. In kind it is toxicity, organism-based. Conditions: in vivo.
The subject of series [11] is Rattus norvegicus. The experiment in a line: Anticonvulsant activity in ip dosed albino Sprague-Dawley rat assessed as protection against maximal electroshock-induced seizures by measuring time to peak effect. Type of series: functional.
In series [12] the test system is Rattus norvegicus. The experiment in a line: Neurotoxicity in albino Sprague-Dawley rat assessed as behavioral impairment at 30 mg/kg, po after 0.5 hrs by rotorod test. In kind it is toxicity, organism-based. Conditions: in vivo.
For series [13], the system named is Rattus norvegicus. Nature of the series: Anticonvulsant activity in ip dosed albino Sprague-Dawley rat assessed as protection against subcutaneous metrazol-induced seizures by measuring time to peak effect. Type of series: functional.
The test system of series [14] is Mus musculus. Nature of the series: Anticonvulsant activity in ip dosed albino CF1 mouse assessed as protection against 6 Hz current-induced seizure by measuring time to peak effect. In kind it is functional.
Series [15] concerns Rattus norvegicus. The experiment in a line: Neurotoxicity in albino Sprague-Dawley rat assessed as behavioral impairment at 30 mg/kg, ip after 1 hr by rotorod test. Type of series: toxicity, organism-based. The settings on record: in vivo.
For series [16], the system named is Mus musculus. The experiment in a line: Anticonvulsant activity in albino CF1 mouse assessed as protection against 44 mA current-induced seizure at 50 mg/kg, ip after 2 hrs by 6 Hz psychomotor test. In kind it is functional, organism-based.
For series [17], the system named is Mus musculus. Nature of the series: Anticonvulsant activity in ip dosed albino CF1 mouse assessed as protection against subcutaneous metrazol-induced seizures. In kind it is functional.
Series [18] has as its system Rattus norvegicus. Nature of the series: Neurotoxicity in albino Sprague-Dawley rat assessed as behavioral impairment at 30 mg/kg, ip after 0.5 hrs by rotorod test. In kind it is toxicity, organism-based. The settings on record: in vivo.
Series [19] in a line: Neurotoxicity in ip dosed albino Sprague-Dawley rat assessed as motor impairment by rotorod test. In kind it is toxicity, organism-based. Conditions: in vivo.
The test system of series [20] is Rattus norvegicus. The experiment in a line: Anticonvulsant activity in ip dosed albino Sprague-Dawley rat assessed as protection against subcutaneous metrazol-induced seizures. In kind it is functional.
Series [21] concerns Rattus norvegicus. Nature of the series: Anticonvulsant activity in albino Sprague-Dawley rat assessed as protection against maximal electroshock-induced seizures at 30 mg/kg, po after 1 hr. In kind it is functional, organism-based.
Series [22] deals with Mus musculus. The experiment in a line: Neurotoxicity in albino CF1 mouse assessed as behavioral impairment at 50 mg/kg, ip after 1 hr by rotorod test. Type of series: toxicity, organism-based. Conditions: in vivo.
Series [23] concerns Mus musculus. Nature of the series: Neurotoxicity in albino CF1 mouse assessed as behavioral impairment at 50 mg/kg, ip after 0.25 hrs by rotorod test. In kind it is toxicity, organism-based. The settings on record: in vivo.
The subject of series [24] is Rattus norvegicus. Nature of the series: Neurotoxicity in albino Sprague-Dawley rat assessed as behavioral impairment at 30 mg/kg, po after 2 hrs by rotorod test. Type of series: toxicity, organism-based. The settings on record: in vivo.
The nature of series [25]: Protective index, ratio of TD50 for neurotoxicity in ip dosed albino Sprague-Dawley rat to ED50 for anticonvulsant activity in ip dosed maximal electroshock-induced seizure albino Sprague-Dawley rat model. Type of series: toxicity, organism-based. Conditions: in vivo, read-out: Ratio TD50/ED50.
The subject of series [26] is Mus musculus. The experiment in a line: Anticonvulsant activity in albino CF1 mouse assessed as protection against maximal electroshock-induced seizures at 30 mg/kg, ip after 2 hrs. Type of series: functional, organism-based.
Series [27] deals with Mus musculus. Nature of the series: Anticonvulsant activity in albino CF1 mouse assessed as protection against 44 mA current-induced seizure at 50 mg/kg, ip after 0.25 hrs by 6 Hz psychomotor test. Type of series: functional, organism-based.
Series [28] concerns Mus musculus. The experiment in a line: Anticonvulsant activity in albino CF1 mouse assessed as protection against maximal electroshock-induced seizures at 100 mg/kg, ip after 0.5 hrs. Type of series: functional, organism-based.
Series [29] is described as follows: Protective index, ratio of TD50 for neurotoxicity in ip dosed albino CF1 mouse to ED50 for anticonvulsant activity in ip dosed […] metrazol-induced seizure albino CF1 mouse model. Type of series: toxicity, organism-based. The settings on record: in vivo, read-out: Ratio TD50/ED50.
Series [30] has as its system Mus musculus. Nature of the series: Neurotoxicity in albino CF1 mouse assessed as behavioral impairment at 100 mg/kg, ip after 2 hrs by rotorod test. In kind it is toxicity, organism-based. Conditions: in vivo.
The test system of series [31] is Rattus norvegicus. Nature of the series: Neurotoxicity in albino Sprague-Dawley rat assessed as behavioral impairment at 30 mg/kg, ip after 0.25 hrs by rotorod test. Type of series: toxicity, organism-based. Conditions: in vivo.
Series [32] concerns Mus musculus. The experiment in a line: Neurotoxicity in albino CF1 mouse assessed as behavioral impairment at 30 mg/kg, ip after 2 hrs by rotorod test. Type of series: toxicity, organism-based. Conditions: in vivo.
Series [33] relates to Mus musculus. The experiment in a line: Neurotoxicity in albino CF1 mouse assessed as behavioral impairment at 300 mg/kg, ip after 2 hrs by rotorod test. In kind it is toxicity, organism-based. Conditions: in vivo.
In series [34] the test system is Mus musculus. Nature of the series: Anticonvulsant activity in albino CF1 mouse assessed as protection against 32 mA current-induced seizure at 30 mg/kg, ip after 0.5 hrs by 6 Hz psychomotor test. In kind it is functional, organism-based.
For series [35], the system named is Mus musculus. The experiment in a line: Anticonvulsant activity in albino CF1 mouse assessed as protection against 32 mA current-induced seizure at 30 mg/kg, ip after 2 hrs by 6 Hz psychomotor test. In kind it is functional, organism-based.
Series [36] has as its system Mus musculus. Nature of the series: Neurotoxicity in albino CF1 mouse assessed as behavioral impairment at 300 mg/kg, ip after 0.5 hrs by rotorod test. Type of series: toxicity, organism-based. The settings on record: in vivo.
Series [37] has as its system Mus musculus. The experiment in a line: Neurotoxicity in albino CF1 mouse assessed as behavioral impairment at 50 mg/kg, ip after 2 hrs by rotorod test. In kind it is toxicity, organism-based. The settings on record: in vivo.
The nature of series [38]: Protective index, ratio of TD50 for neurotoxicity in ip dosed albino CF1 mouse to ED50 for anticonvulsant activity in ip dosed maximal electroshock-induced seizure albino CF1 mouse model. Type of series: toxicity, organism-based. The settings on record: in vivo, read-out: Ratio TD50/ED50.
Series [39] concerns Rattus norvegicus. The experiment in a line: Neurotoxicity in albino Sprague-Dawley rat assessed as behavioral impairment at 30 mg/kg, ip after 2 hrs by rotorod test. In kind it is toxicity, organism-based. Conditions: in vivo.
Series [40] concerns Rattus norvegicus. The experiment in a line: Neurotoxicity in albino Sprague-Dawley rat assessed as behavioral impairment at 30 mg/kg, po after 1 hr by rotorod test. In kind it is toxicity, organism-based. The settings on record: in vivo.
The subject of series [41] is Mus musculus. Nature of the series: Neurotoxicity in albino CF1 mouse assessed as behavioral impairment at 50 mg/kg, ip after 0.5 hrs by rotorod test. In kind it is toxicity, organism-based. Conditions: in vivo.
Series [42] has as its system Mus musculus. Nature of the series: Anticonvulsant activity in ip dosed albino CF1 mouse assessed as protection against maximal electroshock-induced seizures. Type of series: functional.
Series [43] in a line: Protective index, ratio of TD50 for neurotoxicity in ip dosed albino Sprague-Dawley rat to ED50 for anticonvulsant activity in ip dosed subcutaneous metrazol-induced seizure albino Sprague-Dawley rat model. In kind it is toxicity, organism-based. Conditions: in vivo, read-out: Ratio TD50/ED50.
The test system of series [44] is Rattus norvegicus. Nature of the series: Neurotoxicity in albino Sprague-Dawley rat assessed as behavioral impairment at 30 mg/kg, po after 0.25 hrs by rotorod test. Type of series: toxicity, organism-based. The settings on record: in vivo.
Series [45] concerns Mus musculus. The experiment in a line: Anticonvulsant activity in ip dosed albino CF1 mouse assessed as protection against 6 Hz current-induced seizures by psychomotor test. Type of series: functional.

Calls of active or inactive are those of the source. No cut-off for these calls is given here.

In [1], `OC(Cn1ccnc1)c1ccc(CCc2ccccc2)cc1` (stereo not given) [DENZIMOL] showed a Vd of 3 L/kg. The same compound showed a half-life in series [2] of 5 h. Moreover, in series [3], the clearance is 5 mL/min/kg.
Take `CCCC(COC(=O)NCCCn1ccnc1)C(C)CC` (stereo not given): the outcome with Rattus norvegicus [4], with Mus musculus [9], in the series with Mus musculus [16], in the series with Rattus norvegicus [21], in the series on Mus musculus [26] and in the series on Mus musculus [27] was inactive. Besides, the result in the series on Mus musculus [34] and in the series with Mus musculus [35] was inactive. The Time with Mus musculus [5] is 0.5 h; in the series on Mus musculus [7], 0.5 h; in the series on Rattus norvegicus [11], 0.25 h; in the series with Rattus norvegicus [13], 0.25 h; with Mus musculus [14] it was 0.5 h. Besides, the median effective dose (ED50) with Rattus norvegicus [6] was 20 mg/kg; in the series with Mus musculus [17], greater than 100 mg/kg; with Rattus norvegicus [20], greater than 95 mg/kg; in the series on Mus musculus [42], 24 mg/kg. For the same compound, the TD50 in series [8] amounted to 67 mg/kg; in [19], 96 mg/kg. Besides, the Activity result in the series with Mus musculus [10], in the series on Rattus norvegicus [12], in the series with Rattus norvegicus [15], with Rattus norvegicus [18], in the series on Mus musculus [22] and with Mus musculus [23] was “Non-toxic” throughout. In addition, the Activity entry in the series with Rattus norvegicus [24] is given as “Non-toxic”; in the series on Mus musculus [30] it was “Non-toxic”; in the series with Rattus norvegicus [31] it was “Non-toxic”; in the series on Mus musculus [32], “Non-toxic”; with Mus musculus [33] it was “Toxic”; in the series with Mus musculus [36] it was “Toxic”. Further, the Activity entry in the series on Mus musculus [37], with Rattus norvegicus [39], in the series on Rattus norvegicus [40], in the series on Mus musculus [41] and with Rattus norvegicus [44] was “Non-toxic” throughout. The selectivity ratio in series [25] worked out at 4.8; in series [29], 0.67; in [38] it was 2.8; in [43], 1. For the same compound, the outcome with Mus musculus [28] was Active. Also, the ED50 entry in the series with Mus musculus [45] was “inactive”.
